Results reported in US6440432B1, “Skin cosmetic compositions containing dextran or maltodextrin and a weak carboxylic acid” (Unilever Home & Personal Care USA, a division of Conopco, …, priority 1999, dated 2002).
Entries after “also recorded” stand apart in the source; their conditions may differ.

Key:
[1] = system: procollagen I in neonatal human dermal fibroblasts; assay: procollagen I production by fibroblasts (slot blot); type: cell-based; conditions: combination with glycolic acid
Description: Collagen is a predominant skin protein. It is synthesized by fibroblasts in the dermis. The synthesis of collagen decreases with aging or photodamage. Collagen l is first made as a precursor molecule called Pro-collagen l. Increased production of procollagen 1 is a marker of an increased collagen level in response to a test compound application.
Method: Neonatal human dermal fibroblasts were purchased from Clonetics Corp., San Diego, Calif. All materials for cell culture were purchased from Life Technologies, NY. Cells (between passages 5-10) were seeded at a density of approximately 10,000/well in the inner 48 wells of a 96-well plate in DMEM (Dulbecco's Modified Eagle's Medium), high-glucose, supplemented with 2 mM L-glutamine, 10% fetal bovine serum, and antibiotic and antimycotic solutions. Cells were then grown to confluence for 2 days. At confluence, the medium was removed and cells were washed with serum-free DMEM, and each well dosed with 200 μl of a solution of a test compound in serum-free DMEM. Each dosing was replicated in the total of six wells. […]
For the analysis of procollagen I in the solutions, they were diluted in DMEM (approximately 20 μl sample in 200 μl DMEM). […] Percent increase was calculated as a ratio of optical density of cells treated with a test compound over control ×100.

[2] = system: contralateral nasolabial folds of subjects sensitive to glycolic acid; assay: in-vivo sting test (sting/burn propensity and forced choice); conditions: for Effect on stinging/burning propensity of Base Formula A containing 8% glycolic acid (in words): substance added to the formulation, pH 3.8; for Effect on sting/irritation caused by weak carboxylic acids (in words, summary): summary of Examples 1-6
Description: (§1) Procedure for in-vivo sting test: This was a randomized, double blind study where each subject evaluated one test formulation and a control formulation or two test formulations on contralateral nasolabial folds. […] A maximum of 20 qualified subjects (minimum of 15) were utilized in each subsequent test. One paired comparison was made on each testing day, with a minimum of 3 days between sting testing throughout the study. Subjects underwent a 15 second Ivory soap wash regime immediately prior to product testing for enhancing sting response. […] Study personnel then applied one test formulation and one control or test formulation simultaneously to the appropriate left/right test site, and gently but thoroughly rubbed in. Subjects compared the stinging potential of the two formulations, over a 7.5 minute period using a self-assessment questionnaire.
(§2) Sting/Burn Propensity: The degree of stinging/burning felt on the left and right inner cheek and crease of the nose was evaluated using the following scale at the times indicated in Tables below:
(§3) 0-no stinging/burning; 1-very slight stinging/burning; 2-slight stinging/burning; 3-moderate stinging/burning; 4-moderately high stinging/burning; 5-high stinging/burning; 6-extreme stinging/burning.
(§4) Determination of Statistical Significance: At each evaluation time point after baseline, the parametric paired t-test (two-tailed) was performed, to compare the extent of attribute change from baseline between each treatment comprising a paired comparison test, with subject acting as a block in these analyses. […] The test can be implemented using the SAS software procedure MEANS with the T and PRT options specified.
(§5) Statistical significance was determined at p≦0.1.

[3] = system: transglutaminase-K (Tgase K) in Normal Human keratinocytes; assay: keratinocyte differentiation (transglutaminase absorbance / µg DNA); type: cell-based; conditions: combination with lactic acid
Description: Keratinocytes, the major cell type in the epidermis, undergo a program of differentiation leading to formation of corneocytes which form the stratum corneum and provide a protective barrier against water loss and entry of harmful substances and pathogens. A prominent feature of keratinocyte differentiation is the formation of a highly insoluble, cross-linked envelope (CE) immediately beneath the keratinocyte plasma membrane. The production of keratinocyte CE is catalyzed by the enzyme transglutaminase-K (Tgase K) which cross-links certain precursor proteins in the cell. […] Therefore, agents that increase Tgase-K activity have the potential of providing benefits to the skin.
Method: Normal Human keratinocytes were seeded in 96-well plates at 4000 cells/well and grown in Keratinocyte Growth Medium (KGM) obtained from Clonetics Corp. Cells were treated with test compounds at various concentrations for 48 hours with an intermittent change of medium after 24 hrs. 6 replicate wells were used for each test. At the end of the incubation period, two parameters were measured on the cells—I. DNA and II. […]
I. DNA was measured using a method described by Rago et al Anal. Biochem 191:31-34,1990. […] Readings were then taken on Millipore Fluorescence Miicroplate Reader (ex/em 360/450 nm). Amount of DNA per well (α) was calculated using standards.
II. […] Absorbance was measured at 490nm (b). […]

skin = conditions: LAREX publication Mar. 23, 1998; cited from earlier work
[4] = system: contralateral nasolabial folds of subjects sensitive to glycolic acid; conditions: in vivo, pH 3.8
Description: as §1, §2, §3, §4, §5

[5] = system: photodamaged skin on both forearms; assay: 12-week bilateral comparison use test, clinical assessment of photodamaged skin; type: in vivo, human; conditions: summary statement
Procedure: Procedure: The study was a 12-week bilateral comparison use test of two formulations. […] At Baseline (week 0), week 4, 8 and 12, visual evaluation was conducted. Product assignment was randomized and balanced for left/right usage across the subject pool. Subjects were instructed to use the appropriate product to the left/right arms at home and applied approximately 1 gram twice daily for 12 weeks. A minimum of 15 qualified subjects per paired comparison completed the study. […] 0=none […] 4-6=moderate 7-9=severe The following paired comparisons were made: […] The Wilcoxon signed rank test, Pratt-Lehmann version, was used to statistically assess the magnitude of average change from baseline attributable to treatment with subject acting as a block in this analysis. In addition, to compare the extent of change from baseline between the two treatments within a cell, the nonparametric Wilcoxon signed-rank test, Pratt-Lehmann version, was also used.

[6] = cited from earlier work

| Compound | Effect on procollagen I levels (in words) [1] | Effect on stinging/burning propensity of Base Formula A containing 8% glycolic acid (in words) [2] | Effect on sting/irritation caused by weak carboxylic acids (in words, summary) [2] | other results |
| --- | --- | --- | --- | --- |
| Arabinogalactan | did not | neither hydrocortisone nor arabinogalactan reduced the sting; also recorded: slightly enhanced the sting | does not have this effect; also recorded: did not reduce the sting caused by weak carboxylic acids | Effect on keratinocyte differentiation (in words) [3]: did not; Increase of exfoliation performance of a skin care lotion containing alpha hydroxy acid (skin): 80%; Irritation of the skin care lotion containing alpha hydroxy acid (in words) (skin): without increased irritation |
| Dextran | significant increase in procollagen l levels |  | decrease irritation; also recorded: reduced the sting caused by weak acids | Effect on stinging/burning propensity of Base Formula B containing 8% glycolic acid (in words) [4]: reduced the stinging/burning propensity; Effect on anti-aging efficacy of hydroxy acids (in words) [5]: enhances the anti-aging efficacy of hydroxy acids |
| CC(O)CC(=O)O (stereo not drawn) [beta-hydroxybutyric] |  |  |  | pKa [6]: 4.7 |
| Maltodextrin |  |  | decrease irritation |  |
| C[C@]12CCC(=O)C=C1CC[C@@H]1[C@@H]2[C@@H](O)C[C@@]2(C)[C@H]1CC[C@]2(O)C(=O)CO [hydrocortisone, Hydrocortisone] |  | neither hydrocortisone nor arabinogalactan reduced the sting | did not reduce the sting caused by weak carboxylic acids |  |
